pEC50, pIC50: −log10 of the molar value.
Assays:
[1] = test system: IFNγ-induced STAT1 phosphorylation (pSTAT1) in B16F10 cells; assay: B16F10 Phospho-STAT1 HTRF proximal pharmacodynamic (PD) assay; format: cell-based, murine; conditions: B16-F10; B16F10 cells, 3 hours compound, 100 nM mouse IFNγ 10 minutes; read-out: B16F10 IFNγ Induced pSTAT1 EC50
Method in brief: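 B16F10 cells in phenol red-free DMEM/10% FBS were dosed for 3 h at 37 °C in a 10-point, 3-fold series from 50 μM, then stimulated with 100 nM mouse IFNγ for 10 min and stopped with 3.3 μM staurosporine. pSTAT1 in lysates was measured by HTRF (665 nm emission), and EC50s were fitted from dose-response curves.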

[2] = biological target: His tagged full-length PTPN1 protein (Homo sapiens (Human), UniProt P18031); assay: PTPN1 Mobility Shift Assay (MSA); format: biochemical; conditions: enzyme 0.5 nM, substrate 2 μM
Method in brief: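 Enzyme at 0.5 nM was preincubated with compound (12-point, 1:3 dilution) for 10 min at room temperature in pH 7.5 HEPES buffer with EDTA, EGTA and DTT. OG488-labelled phosphorylated insulin-receptor peptide at 2 µM was then added for 10 min. After quench, % substrate dephosphorylation was read by mobility shift, and IC50 came from % inhibition.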

[3] = biological target: His tagged PTPN2 (TC45) protein (Homo sapiens (Human), UniProt P17706); assay: PTPN2 Mobility Shift Assay (MSA); format: biochemical; conditions: enzyme 0.5 nM, substrate 2 μM
Method in brief: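 His-tagged human PTPN2 (TC45), 0.5 nM, preincubated with compound (12-point, 1:3) 10 min at room temperature in HEPES pH 7.5 buffer with EDTA, EGTA, DTT. Dephosphorylation of 2 μM fluorescent phospho-insulin-receptor peptide over 10 min read by mobility shift; IC50 from % inhibition.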

Sequence of His tagged PTPN2 (TC45) protein (P17706 other isoform, or with tags, fused parts or gaps): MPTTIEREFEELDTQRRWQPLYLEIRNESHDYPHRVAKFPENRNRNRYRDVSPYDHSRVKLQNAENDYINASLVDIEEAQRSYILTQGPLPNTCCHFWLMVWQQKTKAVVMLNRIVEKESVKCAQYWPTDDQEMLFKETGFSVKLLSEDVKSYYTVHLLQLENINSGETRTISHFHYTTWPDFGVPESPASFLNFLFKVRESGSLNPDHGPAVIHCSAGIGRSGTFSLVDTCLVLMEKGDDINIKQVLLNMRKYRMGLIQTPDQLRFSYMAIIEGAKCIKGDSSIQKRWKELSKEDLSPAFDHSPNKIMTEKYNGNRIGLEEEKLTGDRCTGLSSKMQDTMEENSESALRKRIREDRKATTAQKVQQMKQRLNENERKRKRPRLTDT
Sequence of His tagged full-length PTPN1 protein (P18031 whole entry): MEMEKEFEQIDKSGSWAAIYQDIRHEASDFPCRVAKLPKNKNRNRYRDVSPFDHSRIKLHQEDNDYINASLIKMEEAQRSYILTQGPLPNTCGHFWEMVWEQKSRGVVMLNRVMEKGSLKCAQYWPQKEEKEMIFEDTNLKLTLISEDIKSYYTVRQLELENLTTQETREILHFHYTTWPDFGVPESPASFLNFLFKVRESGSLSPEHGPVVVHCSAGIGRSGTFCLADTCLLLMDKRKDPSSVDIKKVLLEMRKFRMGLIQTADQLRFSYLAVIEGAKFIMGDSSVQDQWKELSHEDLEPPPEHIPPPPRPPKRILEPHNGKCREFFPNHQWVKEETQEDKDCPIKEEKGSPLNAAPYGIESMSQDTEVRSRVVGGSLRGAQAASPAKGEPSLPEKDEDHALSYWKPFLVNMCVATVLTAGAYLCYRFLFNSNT

Structure (SMILES) | pEC50 [1] | pIC50 [2] | pIC50 [3]
O=C1CN(c2c(O)cc3c(c2F)CC(CNCCC2COC2)N3)S(=O)(=O)N1 (stereo not drawn) [Compound 144, 5-[4-fluoro-6-hydroxy-2-({[2-(oxetan-3-yl)ethyl]amino}methyl)-2,3-dihydro-1H-indol-5-yl]-1λ^6,2,5-thiadiazolidine-1,1,3-trione] | 5.14 | < 7.00 | 7.00 to 8.00
O=C1CN(c2c(O)cc3c(c2F)CC(CNCCCC(F)F)N3)S(=O)(=O)N1 (stereo not drawn) [Compound 145, 5-(2-{[(4,4-difluorobutyl)amino]methyl}-4-fluoro-6-hydroxy-2,3-dihydro-1H-indol-5-yl)-1λ^6,2,5-thiadiazolidine-1,1,3-trione] | 5.71 | 7.00 to 8.00 | 7.00 to 8.00
O=C1CN(c2c(O)cc3c(c2F)C[C@H](CNCC2CCCC2)N3)S(=O)(=O)N1 [Compound 146, 5-[(2R)-2-{[(cyclopentylmethyl)amino]methyl}-4-fluoro-6-hydroxy-2,3-dihydro-1H-indol-5-yl]-1λ^6,2,5-thiadiazolidine-1,1,3-trione] | 5.74 | 7.00 to 8.00 | 7.00 to 8.00
O=C1CN(c2c(O)cc3c(c2F)C[C@H](CNCC2CC2)N3)S(=O)(=O)N1 [Compound 147, 5-[(2R)-2-{[(cyclopropylmethyl)amino]methyl}-4-fluoro-6-hydroxy-2,3-dihydro-1H-indol-5-yl]-1λ^6,2,5-thiadiazolidine-1,1,3-trione] | 5.74 | 7.00 to 8.00 | 7.00 to 8.00
CCCC(C)NC[C@H]1Cc2c(cc(O)c(N3CC(=O)NS3(=O)=O)c2F)N1 (stereo partly drawn) [Compound 148, 5-[(2R)-4-fluoro-6-hydroxy-2-{[(pentan-2-yl)amino]methyl}-2,3-dihydro-1H-indol-5-yl]-1λ^6,2,5-thiadiazolidine-1,1,3-trione] | 5.73 | 7.00 to 8.00 | > 8.00
CC[C@@H](C)NC[C@H]1Cc2c(cc(O)c(N3CC(=O)NS3(=O)=O)c2F)N1 [Compound 149, 5-[(2R)-2-({[(2R)-butan-2-yl]amino}methyl)-4-fluoro-6-hydroxy-2,3-dihydro-1H-indol-5-yl]-1λ^6,2,5-thiadiazolidine-1,1,3-trione] | 5.81 | 7.00 to 8.00 | > 8.00
CCCCNC[C@H]1Cc2c(cc(O)c(N3CC(=O)NS3(=O)=O)c2F)N1 [Compound 150, 5-{(2R)-2-[(butylamino)methyl]-4-fluoro-6-hydroxy-2,3-dihydro-1H-indol-5-yl}-1λ^6,2,5-thiadiazolidine-1,1,3-trione] | 5.66 | 7.00 to 8.00 | 7.00 to 8.00
O=C1CN(c2c(O)cc3c(c2F)C[C@H](CO)N3)S(=O)(=O)N1 [Compound 151, 5-[(2R)-4-fluoro-6-hydroxy-2-(hydroxymethyl)-2,3-dihydro-1H-indol-5-yl]-1λ^6,2,5-thiadiazolidine-1,1,3-trione] | 5.56 | 7.00 to 8.00 | 7.00 to 8.00
O=C1CN(c2c(O)cc3c(c2F)C[C@H](CNCCC2CC2)N3)S(=O)(=O)N1 [Compound 152, 5-[(2R)-2-{[(2-cyclopropylethyl)amino]methyl}-4-fluoro-6-hydroxy-2,3-dihydro-1H-indol-5-yl]-1λ^6,2,5-thiadiazolidine-1,1,3-trione] | 5.93 | 7.00 to 8.00 | 7.00 to 8.00
CC(C)(C)CCNC[C@H]1Cc2c(cc(O)c(N3CC(=O)NS3(=O)=O)c2F)N1 [Compound 153, 5-[(2R)-2-{[(3,3-dimethylbutyl)amino]methyl}-4-fluoro-6-hydroxy-2,3-dihydro-1H-indol-5-yl]-1λ^6,2,5-thiadiazolidine-1,1,3-trione] | 5.70 | 7.00 to 8.00 | 7.00 to 8.00
CC(C)C1CC(CNC[C@H]2Cc3c(cc(O)c(N4CC(=O)NS4(=O)=O)c3F)N2)C1 (stereo partly drawn) [Compound 154, 5-{(2R)-4-fluoro-6-hydroxy-2-[({[3-(propan-2-yl)cyclobutyl]methyl}amino)methyl]-2,3-dihydro-1H-indol-5-yl}-1λ^6,2,5-thiadiazolidine-1,1,3-trione] | 5.73 | 7.00 to 8.00 | > 8.00
CC(C)CN(C)C[C@H]1Cc2c(cc(O)c(N3CC(=O)NS3(=O)=O)c2F)N1 [Compound 155, 5-[(2R)-4-fluoro-6-hydroxy-2-{[methyl(2-methylpropyl)amino]methyl}-2,3-dihydro-1H-indol-5-yl]-1λ^6,2,5-thiadiazolidine-1,1,3-trione] | 4.80 | 7.00 to 8.00 | 7.00 to 8.00
